The record followed here is patent publication US8642594B2, “Substituted thieno[2,3-d]pyrimidines as HSP90 inhibitors” (Vernalis (R&D) Limited, priority 2003, dated 2014).

T1 sequence (P08238 whole entry): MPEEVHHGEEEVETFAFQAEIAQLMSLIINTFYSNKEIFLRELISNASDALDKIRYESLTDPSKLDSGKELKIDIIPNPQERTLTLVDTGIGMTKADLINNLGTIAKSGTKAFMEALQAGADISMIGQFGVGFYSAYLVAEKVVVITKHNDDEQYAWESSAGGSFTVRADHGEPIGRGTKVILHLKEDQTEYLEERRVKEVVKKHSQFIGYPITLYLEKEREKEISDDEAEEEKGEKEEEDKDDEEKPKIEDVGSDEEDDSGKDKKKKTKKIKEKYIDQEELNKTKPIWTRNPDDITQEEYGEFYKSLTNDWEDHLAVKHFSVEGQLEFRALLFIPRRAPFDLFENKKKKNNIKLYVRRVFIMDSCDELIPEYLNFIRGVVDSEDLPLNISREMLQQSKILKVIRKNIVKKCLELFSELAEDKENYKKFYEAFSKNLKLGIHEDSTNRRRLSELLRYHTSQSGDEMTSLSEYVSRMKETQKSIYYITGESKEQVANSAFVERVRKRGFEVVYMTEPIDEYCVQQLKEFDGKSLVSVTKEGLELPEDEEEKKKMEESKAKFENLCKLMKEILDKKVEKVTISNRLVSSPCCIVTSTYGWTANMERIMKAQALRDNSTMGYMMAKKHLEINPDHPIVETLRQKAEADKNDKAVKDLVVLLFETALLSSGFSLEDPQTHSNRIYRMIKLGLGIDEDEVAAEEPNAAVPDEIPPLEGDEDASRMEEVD

The first test concerns the target T1, Human full-length Hsp90 (Homo sapiens, UniProt P08238).
T1 construct: E. coli expressed human full-length HSP90 protein, purified >95%; made in house; host or cells: E. coli
Nature of the test: Fluorescence polarization assay (competitive binding to HSP90, probe RBT0045864-FAM).
Conditions: not given
The procedure:
Fluorescence Polarization Assay
Fluorescence polarization {also known as fluorescence anisotropy} measures the rotation of a fluorescing species in solution, where the larger molecule the more polarized the fluorescence emission. When the fluorophore is excited with polarized light, the emitted light is also polarized. The molecular size is proportional to the polarization of the fluorescence emission.
The fluoroscein-labelled probe—RBT0045864-FAM—
Test compound is added to the assay plate, left to equilibrate and the anisotropy measured again. Any change in anisotropy is due to competitive binding of compound to HSP90, thereby releasing probe.
Stored at room temperature. • 3) BSA (bovine serum albumen) 10 mg/ml (New England Biolabs #B9001S) • 4) 20 mM probe in 100% DMSO stock concentration. Stored in the dark at RT. Working concentration is 200 nM diluted in AR water and stored at 4° C. […] Protocol • 1) Add 100 μl 1× buffer to wells 11A and 12A (=FP BLNK) • 2) Prepare assay mix—all reagents are kept on ice with a lid on the bucket as the probe is light-sensitive.
This gives 2.5 mM {50×} stock cpd—assuming cpds 20 mM. • 4) Repeat for wells A2 to A10. Control in columns 11 and 12. • 5) Transfer 5 μl from row A to row B—not column 12. Mix well. • 6) Transfer 5 μl from row B to row C. […] Add 2 μl of 100 mM standard cpd to wells B12-H12 {is positive control} • 13) The Z′ factor is calculated from zero controls and positive wells.
(Fluorescence polarisation rises when a labelled molecule tumbles more slowly, as on binding a larger partner.)
The IC50 is the point on the concentration scale where inhibition reaches its midpoint. As for `CCNC(=O)c1cc2c(-c3cc(OCCN4CCN(C)CC4)c(Cl)cc3Cl)nc(N)nc2s1` [Example 246], the IC50 is less than 10 µM.

For `CCNC(=O)c1cc2c(-c3cc(OCCN(C)C)c(Cl)cc3Cl)nc(N)nc2s1` [Example 254], the IC50 was less than 10 µM.

Compound `CCNC(=O)c1cc2c(-c3ccc(Cl)cc3)nc(N)nc2s1` [Example 173] returned an IC50 of less than 10 µM.

In the case of `CCNC(=O)c1cc2c(-c3cc(OCCN4CCC(F)(F)CC4)c(Cl)cc3Cl)nc(N)nc2s1` [Example 250], the 50% inhibitory concentration (IC50) is less than 10 µM.

`CCN(CC)CCOc1cc(-c2nc(N)nc3sc(C(=O)NC4CC4)cc23)c(Cl)cc1Cl` [Example 251]: the IC50 was less than 10 µM.

`CCNC(=O)c1cc2c(-c3cc(OCC#N)c(Cl)cc3Cl)nc(N)nc2s1` [Example 270] had an IC50 of less than 10 µM.

Staying with this test, now noted: fluorescence polarization assay, activity range; read-out: Hsp90 FP IC50.
Consider `CCOC(=O)c1cc2c(/C=C/c3ccc(C(F)(F)F)cc3)nc(N)nc2s1` [Example 288], for which the IC50 is less than 10 µM.

Take `CCOC(=O)c1cc2c(-c3ccsc3)nc(N)nc2s1` [Example 18]: the IC50 is greater than 10 µM.

With `CCOC(=O)c1cc2c(C(=O)c3cc(C)cc(C)c3)nc(N)nc2s1` [Example 300], the IC50 is less than 10 µM.

With `CCCN(C)C(=O)c1cc2c(-c3ccc(C)cc3C)nc(N)nc2s1` [Example 93], the IC50 is greater than 10 µM.

As to `Nc1nc(-c2ccc(Cl)cc2Cl)c2cc(C(=O)Nc3nccs3)sc2n1` [Example 142], the IC50 is less than 10 µM.

On to `CCOC(=O)c1cc2c(-c3ccc(F)cc3)nc(N)nc2s1` [Example 10], for which the IC50 is greater than 10 µM.

Regarding `Nc1nc(-c2ccc(Cl)cc2Cl)c2cc(C(=O)Nc3cccc(Cl)c3)sc2n1` [Example 109], the IC50 is less than 10 µM.

Consider `CCCCNC(=O)c1cc2c(-c3ccccc3)nc(N)nc2s1` [Example 48], for which the IC50 is greater than 10 µM.

For `Cc1c(C(N)=O)sc2nc(N)nc(-c3ccccc3)c12` [Example 75, 2-Amino-5-methyl-4-phenyl-thieno[2,3-d]pyrimidine-6-carboxylic acid amide], the IC50 is greater than 10 µM.

On to `C[C@@H](NC(=O)c1cc2c(-c3ccc(Cl)cc3Cl)nc(N)nc2s1)c1ccccc1` [Example 138], for which the IC50 is less than 10 µM.

`CCOC(=O)c1cc2c(-c3ccc(OC)cc3)nc(N)nc2s1` [Example 12]: the IC50 is greater than 10 µM.

In the case of `CN(c1ccccc1)c1nc(N)nc2sc(C(N)=O)cc12` [Example 63], the IC50 is greater than 10 µM.

As for `Nc1nc(-c2ccc(Cl)cc2Cl)c2cc(C(=O)NCc3ccc(S(N)(=O)=O)cc3)sc2n1` [Example 116], the IC50 was less than 10 µM.

Take `COc1ccc(NC(=O)c2cc3c(-c4ccc(Cl)cc4Cl)nc(N)nc3s2)cc1` [Example 113]: the IC50 was less than 10 µM.

In the case of `NC(=O)[C@H](Cc1ccc(O)cc1)NC(=O)c1cc2c(-c3ccc(Cl)cc3Cl)nc(N)nc2s1` [Example 163], the IC50 is less than 10 µM.

With `Nc1nc(-c2ccc(Cl)cc2Cl)c2cc(C(=O)NCCS(N)(=O)=O)sc2n1` [Example 130], the IC50 is less than 10 µM.

In the case of `CCOC(=O)c1cc2c(-c3ccc(OCC(N)=O)cc3C)nc(N)nc2s1` [Example 191], the IC50 is less than 10 µM.

In the case of `CCNC(=O)c1cc2c(-c3cc(CNCCCOC)ccc3C)nc(N)nc2s1` [Example 202], the IC50 was less than 10 µM.

With `C=CCc1ccc(-c2nc(N)nc3sc(C(=O)NCC)cc23)c(C)c1` [Example 176], the IC50 is less than 10 µM.

For the compound `CCNC(=O)c1cc2c(-c3cccc(O)c3)nc(N)nc2s1` [Example 244], the IC50 was less than 10 µM.

For the compound `CCNC(=O)c1cc2c(-c3cc(CNCc4cccs4)c(C)cc3C)nc(N)nc2s1` [Example 233], the IC50 was less than 10 µM.

For the compound `CCOC(=O)c1cc2c(CCc3ccccc3)nc(N)nc2s1` [Example 275, 2-Amino-4-phenethyl-thieno[2,3-d]pyrimidine-6-carboxylic acid ethyl ester], the IC50 was less than 10 µM.

Consider `CCOC(=O)c1cc2c(-c3ccc(C#N)cc3Cl)nc(N)nc2s1` [Example 148], for which the IC50 was less than 10 µM.

Take `CCNC(=O)c1cc2c(-c3cc(OCCN4CCC(F)CC4)c(Cl)cc3Cl)nc(N)nc2s1` [Example 249]: the IC50 is less than 10 µM.

Consider `CCNC(=O)c1cc2c(C(C)c3ccccc3)nc(N)nc2s1` (stereo not drawn) [Example 287], for which the IC50 is less than 10 µM.

As to `CCOC(=O)c1cc2c(-c3ccccc3)nc(N)nc2s1` [Example 1, 2-Amino-4-phenyl-thieno[2,3-d]pyrimidine-6-carboxylic acid ethyl ester], the IC50 was less than 10 µM.

For the compound `C=Cc1ccc(-c2nc(N)nc3sc(C(=O)NCC)cc23)c(C)c1` [Example 171], the IC50 was less than 10 µM.

For `CCOC(=O)c1cc2c(C(=O)c3cccc(C)c3C)nc(N)nc2s1` [Example 307], the IC50 is less than 10 µM.

`CC(C)CNC(=O)c1cc2c(-c3ccccc3)nc(N)nc2s1` [Example 52]: the IC50 was greater than 10 µM.

In the case of `C=C(c1ccc(F)cc1)c1nc(N)nc2sc(C(=O)OCC)cc12` [Example 277], the IC50 was less than 10 µM.

Turning to `NC(=O)CCNC(=O)c1cc2c(-c3ccc(Cl)cc3Cl)nc(N)nc2s1` [Example 131], the IC50 is less than 10 µM.

Consider `CCOC(=O)c1cc2c(-c3ccc(OCC(=O)OC(C)(C)C)cc3C)nc(N)nc2s1` [Example 192], for which the IC50 is greater than 10 µM.

Turning to `CCOC(=O)c1cc2c(-c3ncccc3C)nc(N)nc2s1` [Example 115], the IC50 is less than 10 µM.

Turning to `CCNC(=O)c1cc2c(-c3cc(OCCn4ccnc4)c(Cl)cc3Cl)nc(N)nc2s1` [Example 263], the IC50 was less than 10 µM.

For the compound `Nc1nc(-c2ccccc2)c2cc(C(=O)Nc3ccccc3)sc2n1` [Example 60], the IC50 was greater than 10 µM.

`CCNC(=O)c1cc2c(-c3cc(OCCN4CCCCC4)c(Cl)cc3Cl)nc(N)nc2s1` [Example 238]: the IC50 was less than 10 µM.

In the case of `CCOC(=O)c1cc2c(-c3cccc(C#N)c3)nc(N)nc2s1` [Example 17], the IC50 is greater than 10 µM.

Consider `CCOC(=O)c1cc2c(-c3c(C)cccc3C)nc(N)nc2s1` [Example 6], for which the IC50 was less than 10 µM.

On to `CCNC(=O)COc1ccc(-c2nc(N)nc3sc(C(=O)OCC)cc23)c(C)c1` [Example 195], for which the IC50 is less than 10 µM.

In the case of `Nc1nc(-c2ccccc2)c2cc(C(=O)NCCc3cnc[nH]3)sc2n1` [Example 57], the IC50 is less than 10 µM.

With `CCOC(=O)c1cc2c(C(=O)c3ccccc3)nc(N)nc2s1` [Example 296], the IC50 was less than 10 µM.

Take `CCOC(=O)c1cc2c(-c3cccc(CN4CCCC4)c3)nc(N)nc2s1` [Example 7]: the IC50 was greater than 10 µM.

Regarding `CCOC(=O)c1cc2c(C(=O)c3ccc4c(c3)OCO4)nc(N)nc2s1` [Example 298], the IC50 was less than 10 µM.

As for `CCOC(=O)c1cc2c(/C=C/c3cccc(C(F)(F)F)c3)nc(N)nc2s1` [Example 284], the IC50 was less than 10 µM.

For `CCCNC(=O)c1ccc(C)c(-c2nc(N)nc3sc(C(=O)OCC)cc23)c1` [Example 181], the IC50 is less than 10 µM.

As to `CCOC(=O)c1cc2c(-c3ccc(CO)cc3)nc(N)nc2s1` [Example 35], the IC50 is less than 10 µM.

Regarding `CCOC(=O)c1cc2c(-c3ccc(Cl)cc3)nc(N)nc2s1` [Example 169], the IC50 is less than 10 µM.

Consider `CCNC(=O)c1cc2c(-c3cc(CNC4CCCC4)ccc3C)nc(N)nc2s1` [Example 199], for which the IC50 was less than 10 µM.

Regarding `Nc1nc(-c2ccc(Cl)cc2Cl)c2cc(C(=O)NCCCO)sc2n1` [Example 101], the IC50 is less than 10 µM.

Regarding `CC(C)NC(=O)c1cc2c(-c3cc(O)c(Cl)cc3Cl)nc(N)nc2s1` [Example 248], the IC50 was less than 10 µM.

In the case of `Nc1nc(-c2ccc(Cl)cc2Cl)c2cc(C(=O)NC3CCCC3)sc2n1` [Example 153], the IC50 is less than 10 µM.

For `CCOC(=O)c1cc2c(-c3cc(Cl)ccc3C)nc(N)nc2s1` [Example 178], the IC50 is less than 10 µM.

For the compound `CCOC(=O)c1cc2c(C(C#N)c3ccc(OC)cc3)nc(N)nc2s1` (stereo not drawn) [Example 318], the IC50 was greater than 10 µM.

As to `CC(C)NC(=O)c1cc2c(-c3cc(OCc4ccccc4)c(Cl)cc3Cl)nc(N)nc2s1` [Example 242], the IC50 was less than 10 µM.

`CCNC(=O)c1cc2c(-c3cc(CNCC(C)C)ccc3C)nc(N)nc2s1` [Example 218]: the IC50 is less than 10 µM.

In the case of `C=C(c1ccccc1)c1nc(N)nc2sc(C(=O)NCC)cc12` [Example 283], the IC50 is less than 10 µM.

As for `Nc1nc(-c2ccc(Cl)cc2Cl)c2cc(C(=O)NCc3ccco3)sc2n1` [Example 125], the IC50 was less than 10 µM.

For `Nc1nc(-c2ccccc2)c2cc(C(=O)NCCc3cccnc3)sc2n1` [Example 51], the IC50 is greater than 10 µM.

Turning to `Nc1nc(-c2ccccc2)c2cc(C(=O)NCCCc3ccccc3)sc2n1` [Example 50], the IC50 was greater than 10 µM.

Consider `CCNC(=O)c1cc2c(-c3cc(CNCc4ccc(S(N)(=O)=O)cc4)ccc3C)nc(N)nc2s1` [Example 207], for which the IC50 was less than 10 µM.

Take `Cc1ccc(-c2nc(N)nc3sc(C(=O)NCCCN(C)C)cc23)c(C)c1` [Example 83]: the IC50 was less than 10 µM.

`Nc1nc(-c2ccc(Cl)cc2Cl)c2cc(C(=O)NC3CN4CCC3CC4)sc2n1` (stereo not drawn) [Example 158]: the IC50 is less than 10 µM.

For the compound `Nc1nc(-c2ccc(Cl)cc2Cl)c2cc(C(=O)NCc3cccnc3)sc2n1` [Example 123], the IC50 was less than 10 µM.
